{"source": "patent US11370798B2", "about": "(Vertex Pharmaceuticals Incorporated, priority 2012, dated 2022)"}
{"test_system": "HCT116 colorectal cancer cells", "test": "Cisplatin sensitization assay (96 h cell viability MTS);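 also: Test-compound concentration that lowers the Cisplatin IC50 by a set fold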", "type": "cell-based", "settings": "compound and Cisplatin added simultaneously, Cisplatin sensitization value", "outline": "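Compound and cisplatin added together as a full matrix of 2-fold serial dilutions from a top final concentration of 10 μM; cells incubated 96 h at 37° C, 5% CO2. Viability then read by MTS after 1 h further incubation; sensitization value reported in μM bins.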"}
{"compound": "CN1CC2CC1CN2C(=O)C1CCN(c2c(F)cncc2NC(=O)c2c(N)nn3cc(F)cnc23)CC1", "note": "(stereo not shown) [I-G-53, 2-amino-6-fluoro-N-(5-fluoro-4-(4-(5-methyl-2,5-diazabicyclo[2.2.1]heptane-2-carbonyl)piperidin-1-yl)pyridin-3-yl)pyrazolo[1,5-a]pyrimidine-3-carboxamide]", "Cisplatin Sensitization Assay": "+++ (Cisplatin sensitization value of <0.02 μM)"}
{"compound": "Nc1nn2cc(Cl)cnc2c1C(=O)Nc1cnccc1N1CCC(N2CCCC2)CC1", "note": "[I-N-105, 2-amino-6-chloro-N-(4-(4-(pyrrolidin-1-yl)piperidin-1-yl)pyridin-3-yl)pyrazolo[1,5-a]pyrimidine-3-carboxamide]", "Cisplatin Sensitization Assay": "+++ (Cisplatin sensitization value of <0.02 μM)"}
{"compound": "CNc1cc(OC)c(NC(=O)c2c(N)nn3cc(F)cnc23)cn1", "note": "[I-O-90, 2-amino-6-fluoro-N-(4-methoxy-6-(methylamino)pyridin-3-yl)pyrazolo[1,5-a]pyrimidine-3-carboxamide]", "Cisplatin Sensitization Assay": "+ (Cisplatin sensitization value>0.2 μM but <5 μM)"}
{"compound": "Nc1nn2cc(Cl)cnc2c1C(=O)Nc1cnccc1N1CCC(N2CC[C@H](F)C2)CC1", "note": "[I-N-103, (S)-2-amino-6-chloro-N-(4-(4-(3-fluoropyrrolidin-1-yl)piperidin-1-yl)pyridin-3-yl)pyrazolo[1,5-a]pyrimidine-3-carboxamide]", "Cisplatin Sensitization Assay": "+++ (Cisplatin sensitization value of <0.02 μM)"}
{"compound": "Nc1nn2cc(Cl)cnc2c1C(=O)Nc1cnccc1OCCN1CCOCC1", "note": "[I-O-60, 2-amino-6-chloro-N-(4-(2-morpholinoethoxy)pyridin-3-yl)pyrazolo[1,5-a]pyrimidine-3-carboxamide]", "Cisplatin Sensitization Assay": "++ (Cisplatin sensitization value>0.02 μM but <0.2 μM)"}
{"compound": "Nc1nn2cc(Cl)cnc2c1C(=O)Nc1cnccc1-n1ccnc1", "note": "[I-N-29, N-(4-(1H-imidazol-1-yl)pyridin-3-yl)-2-amino-6-chloropyrazolo[1,5-a]pyrimidine-3-carboxamide]", "Cisplatin Sensitization Assay": "++ (Cisplatin sensitization value>0.02 μM but <0.2 μM)"}
{"compound": "CC(=O)N1CCC(c2ccncc2NC(=O)c2c(N)nn3cc(F)cnc23)CC1", "note": "[I-C-69, N-(4-(1-acetylpiperidin-4-yl)pyridin-3-yl)-2-amino-6-fluoropyrazolo[1,5-a]pyrimidine-3-carboxamide]", "Cisplatin Sensitization Assay": "+++ (Cisplatin sensitization value of <0.02 μM)"}
{"compound": "Cc1nnc(C2CCN(c3ccncc3NC(=O)c3c(N)nn4cc(F)cnc34)CC2)o1", "note": "[I-N-265, 2-amino-6-fluoro-N-(4-(4-(5-methyl-1,3,4-oxadiazol-2-yl)piperidin-1-yl)pyridin-3-yl)pyrazolo[1,5-a]pyrimidine-3-carboxamide]", "Cisplatin Sensitization Assay": "++ (Cisplatin sensitization value>0.02 μM but <0.2 μM)"}
{"compound": "CN1C2CCC1CN(C(=O)C1CCN(c3c(F)cncc3NC(=O)c3c(N)nn4cc(F)cnc34)CC1)C2", "note": "[I-G-52, 2-amino-6-fluoro-N-(5-fluoro-4-(4-(8-methyl-3,8-diazabicyclo[3.2.1]octane-3-carbonyl)piperidin-1-yl)pyridin-3-yl)pyrazolo[1,5-a]pyrimidine-3-carboxamide]", "Cisplatin Sensitization Assay": "+++ (Cisplatin sensitization value of <0.02 μM)"}
{"compound": "CN1CCN(CC2CCN(c3c(F)cncc3NC(=O)c3c(N)nn4cc(F)cnc34)CC2)CC1", "note": "[I-N-150, 2-amino-6-fluoro-N-(5-fluoro-4-(4-((4-methylpiperazin-1-yl)methyl)piperidin-1-yl)pyridin-3-yl)pyrazolo[1,5-a]pyrimidine-3-carboxamide]", "Cisplatin Sensitization Assay": "+++ (Cisplatin sensitization value of <0.02 μM)"}
{"compound": "COC1CN(C2CCN(c3ccncc3NC(=O)c3c(N)nn4cc(Cl)cnc34)CC2)C1", "note": "[I-N-107, 2-amino-6-chloro-N-(4-(4-(3-methoxyazetidin-1-yl)piperidin-1-yl)pyridin-3-yl)pyrazolo[1,5-a]pyrimidine-3-carboxamide]", "Cisplatin Sensitization Assay": "+++ (Cisplatin sensitization value of <0.02 μM)"}
{"compound": "CS(=O)(=O)C1CCCN(c2ccncc2NC(=O)c2c(N)nn3cc(F)cnc23)C1", "note": "(stereo not shown) [I-N-221, 2-amino-6-fluoro-N-(4-(3-(methylsulfonyl)piperidin-1-yl)pyridin-3-yl)pyrazolo[1,5-a]pyrimidine-3-carboxamide]", "Cisplatin Sensitization Assay": "++ (Cisplatin sensitization value>0.02 μM but <0.2 μM)"}
{"compound": "CN1CCCN(C(=O)C2CCN(c3c(F)cncc3NC(=O)c3c(N)nn4cc(F)cnc34)CC2)CC1", "note": "[I-G-6, 2-amino-6-fluoro-N-(5-fluoro-4-(4-(4-methyl-1,4-diazepane-1-carbonyl)piperidin-1-yl)pyridin-3-yl)pyrazolo[1,5-a]pyrimidine-3-carboxamide]", "Cisplatin Sensitization Assay": "+++ (Cisplatin sensitization value of <0.02 μM)"}
{"compound": "Nc1nn2cc(Cl)cnc2c1C(=O)Nc1cnccc1O[C@H]1CCOC1", "note": "[I-O-58, (S)-2-amino-6-chloro-N-(4-((tetrahydrofuran-3-yl)oxy)pyridin-3-yl)pyrazolo[1,5-a]pyrimidine-3-carboxamide]", "Cisplatin Sensitization Assay": "+++ (Cisplatin sensitization value of <0.02 μM)"}
{"compound": "C[C@@H]1CN(C(=O)C2CCN(c3c(F)cncc3NC(=O)c3c(N)nn4cc(F)cnc34)CC2)CCN1C", "note": "[I-G-50, (R)-2-amino-N-(4-(4-(3,4-dimethylpiperazine-1-carbonyl)piperidin-1-yl)-5-fluoropyridin-3-yl)-6-fluoropyrazolo[1,5-a]pyrimidine-3-carboxamide]", "Cisplatin Sensitization Assay": "+++ (Cisplatin sensitization value of <0.02 μM)"}
{"compound": "Nc1nn2cc(F)cnc2c1C(=O)Nc1cncc(F)c1N1CCC(S(=O)(=O)N2CCN3CCC2CC3)CC1", "note": "[I-N-273, N-(4-(4-(1,4-diazabicyclo[3.2.2]nonan-4-ylsulfonyl)piperidin-1-yl)-5-fluoropyridin-3-yl)-2-amino-6-fluoropyrazolo[1,5-a]pyrimidine-3-carboxamide]", "Cisplatin Sensitization Assay": "+++ (Cisplatin sensitization value of <0.02 μM)"}
{"compound": "CN(C)CCCNC(=O)C1CCN(c2c(F)cncc2NC(=O)c2c(N)nn3cc(F)cnc23)CC1", "note": "[I-G-26, 2-amino-N-(4-(4-((3-(dimethylamino)propyl)carbamoyl)piperidin-1-yl)-5-fluoropyridin-3-yl)-6-fluoropyrazolo[1,5-a]pyrimidine-3-carboxamide]", "Cisplatin Sensitization Assay": "++ (Cisplatin sensitization value>0.02 μM but <0.2 μM)"}
{"compound": "C[C@@H]1CN(C2COC2)CCN1c1ccncc1NC(=O)c1c(N)nn2cc(F)cnc12", "note": "[I-N-23, (R)-2-amino-6-fluoro-N-(4-(2-methyl-4-(oxetan-3-yl)piperazin-1-yl)pyridin-3-yl)pyrazolo[1,5-a]pyrimidine-3-carboxamide]", "Cisplatin Sensitization Assay": "+++ (Cisplatin sensitization value of <0.02 μM)"}
{"compound": "Cc1nn(C)cc1-c1ccncc1NC(=O)c1c(N)nn2cc(F)cnc12", "note": "[I-C-63, 2-amino-N-(4-(1,3-dimethyl-1H-pyrazol-4-yl)pyridin-3-yl)-6-fluoropyrazolo[1,5-a]pyrimidine-3-carboxamide]", "Cisplatin Sensitization Assay": "+++ (Cisplatin sensitization value of <0.02 μM)"}
{"compound": "CN1CCN(c2ccncc2NC(=O)c2c(N)nn3cc(CC#N)cnc23)CC1", "note": "[I-N-82, 2-amino-6-(cyanomethyl)-N-(4-(4-methylpiperazin-1-yl)pyridin-3-yl)pyrazolo[1,5-a]pyrimidine-3-carboxamide]", "Cisplatin Sensitization Assay": "++ (Cisplatin sensitization value>0.02 μM but <0.2 μM)"}
{"compound": "Nc1nn2cc(Cl)cnc2c1C(=O)Nc1cnccc1N1CCNCC1", "note": "[I-N-88, 2-amino-6-chloro-N-(4-(piperazin-1-yl)pyridin-3-yl)pyrazolo[1,5-a]pyrimidine-3-carboxamide]", "Cisplatin Sensitization Assay": "++ (Cisplatin sensitization value>0.02 μM but <0.2 μM)"}
{"compound": "Nc1nn2cc(Cl)cnc2c1C(=O)Nc1cnccc1N1CCn2cncc2C1", "note": "[I-N-75, 2-amino-6-chloro-N-(4-(5,6-dihydroimidazo[1,5-a]pyrazin-7(8H)-yl)pyridin-3-yl)pyrazolo[1,5-a]pyrimidine-3-carboxamide]", "Cisplatin Sensitization Assay": "+++ (Cisplatin sensitization value of <0.02 μM)"}
{"compound": "N#CCc1cnc2c(C(=O)Nc3cnccc3OCCO)c(N)nn2c1", "note": "[I-O-33, 2-amino-6-(cyanomethyl)-N-(4-(2-hydroxyethoxy)pyridin-3-yl)pyrazolo[1,5-a]pyrimidine-3-carboxamide]", "Cisplatin Sensitization Assay": "++ (Cisplatin sensitization value>0.02 μM but <0.2 μM)"}
{"compound": "CN1CCN(C(=O)C2CCN(c3ccncc3NC(=O)c3c(N)nn4cc(F)cnc34)CC2)CC1", "note": "[I-G-1, 2-amino-6-fluoro-N-(4-(4-(4-methylpiperazine-1-carbonyl)piperidin-1-yl)pyridin-3-yl)pyrazolo[1,5-a]pyrimidine-3-carboxamide]", "Cisplatin Sensitization Assay": "+++ (Cisplatin sensitization value of <0.02 μM)"}
{"compound": "CCn1cncc1-c1ccncc1NC(=O)c1c(N)nn2cc(F)cnc12", "note": "[I-C-80, 2-amino-N-(4-(1-ethyl-1H-imidazol-5-yl)pyridin-3-yl)-6-fluoropyrazolo[1,5-a]pyrimidine-3-carboxamide]", "Cisplatin Sensitization Assay": "+++ (Cisplatin sensitization value of <0.02 μM)"}
{"compound": "CCN1CCN(C(=O)C2CCN(c3c(F)cncc3NC(=O)c3c(N)nn4cc(F)cnc34)CC2)CC1", "note": "[I-G-9, 2-amino-N-(4-(4-(4-ethylpiperazine-1-carbonyl)piperidin-1-yl)-5-fluoropyridin-3-yl)-6-fluoropyrazolo[1,5-a]pyrimidine-3-carboxamide]", "Cisplatin Sensitization Assay": "+++ (Cisplatin sensitization value of <0.02 μM)"}
{"compound": "CN(C)S(=O)(=O)C1CCN(c2c(F)cncc2NC(=O)c2c(N)nn3cc(F)cnc23)CC1", "note": "[I-N-146, 2-amino-N-(4-(4-(N,N-dimethylsulfamoyl)piperidin-1-yl)-5-fluoropyridin-3-yl)-6-fluoropyrazolo[1,5-a]pyrimidine-3-carboxamide]", "Cisplatin Sensitization Assay": "+++ (Cisplatin sensitization value of <0.02 μM)"}
{"compound": "Nc1nn2cc(Cl)cnc2c1C(=O)Nc1cnccc1OC1CNC1", "note": "[I-O-73, 2-amino-N-(4-(azetidin-3-yloxy)pyridin-3-yl)-6-chloropyrazolo[1,5-a]pyrimidine-3-carboxamide]", "Cisplatin Sensitization Assay": "+ (Cisplatin sensitization value>0.2 μM but <5 μM)"}
